Read-outs that look alike come from different tables or passages of the source.
Target: T1, guinea-pig trachea (Cavia porcellus, UniProt A0A286Y4I8)
T1 construct: Tracheae from guinea-pigs were dissected out; from tissue; host or cells: guinea-pig trachea
T1 sequence (A0A286Y4I8 1-347): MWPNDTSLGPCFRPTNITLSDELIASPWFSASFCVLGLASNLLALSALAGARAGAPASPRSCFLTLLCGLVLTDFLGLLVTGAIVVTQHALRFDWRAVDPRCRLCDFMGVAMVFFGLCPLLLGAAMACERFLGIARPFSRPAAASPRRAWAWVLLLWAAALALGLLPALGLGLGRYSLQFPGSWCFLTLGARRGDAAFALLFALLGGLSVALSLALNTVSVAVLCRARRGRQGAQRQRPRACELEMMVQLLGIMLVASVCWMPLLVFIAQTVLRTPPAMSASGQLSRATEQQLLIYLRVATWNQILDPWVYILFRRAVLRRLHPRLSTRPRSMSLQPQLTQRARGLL
Assay: Guinea-pig tracheal contraction caused by U-46619
Format: cell-based
Settings: for activity at 10 µM / activity at 30 µM / activity at 100 µM: guinea pig, read-out: Contraction (% of maximal contraction); for activity at 10 µM: cinnamophilin 10 μM; for activity at 30 µM: cinnamophilin 30 μM; for activity at 100 µM: cinnamophilin 100 μM
Procedure: B. Guinea-pig tracheal contraction
Tracheae from guinea-pigs were dissected out, transferred to a dish containing Krebs solution and cut transversely between the segments of cartilage. Several of these, usually about 5, were tied together so as to form a chain, which was then mounted in Krebs solution at 37° C., gassed with 95% O2 plus 5% CO2. One end of the chain was attached to a fixed pin in the bath and the other to a transducer connected to a Grass polygraph. Resting tension of each tissue was set at 1 g, Tracheae were allowed to equilibrate for at least 1 hr and washed-periodically.
Cumulative concentration-response curves were obtained by application of various concentrations of spasmogens for 15-18 min at 3 minutes intervals. Tracheal rings were pre-incubated with cinnamophilin for 15 min, then various concentrations of spasmogens were added for 15-18 min at 3 min intervals. Results were expressed as percentage of the maximal control response for each agonist.

SMILES: COc1cc(CC(C)C(C)C(=O)c2ccc(O)c(OC)c2)ccc1O (stereo not drawn) [Compound 1, cinnamophilin]
- Kb (against U-46619, read-out: pA2, guinea-pig tracheal contraction induced by U-46619 (converted)): 6.31 µM
- activity at 10 µM (U-46619 0.01 μM): 5.7 ± 2%
- activity at 10 µM (U-46619 0.02 μM): 17.1 ± 4.5%
- activity at 10 µM (U-46619 0.05 μM): 35 ± 5%
- activity at 10 µM (U-46619 0.1 μM): 52 ± 5%
- activity at 10 µM (U-46619 0.2 μM): 70 ± 6%
- activity at 10 µM (U-46619 0.5 μM): 79 ± 4%
- activity at 10 µM (U-46619 1 μM): 85 ± 5%
- activity at 10 µM (U-46619 2 μM): 90 ± 4%
- activity at 10 µM (U-46619 5 μM): 94 ± 4%
- activity at 30 µM (U-46619 0.02 μM): 3%
- activity at 30 µM (U-46619 0.05 μM): 11 ± 3%
- activity at 30 µM (U-46619 0.1 μM): 22 ± 4%
- activity at 30 µM (U-46619 0.2 μM): 35 ± 4%
- activity at 30 µM (U-46619 0.5 μM): 52 ± 5%
- activity at 30 µM (U-46619 1 μM): 67 ± 4%
- activity at 30 µM (U-46619 2 μM): 80 ± 4.5%
- activity at 30 µM (U-46619 5 μM): 88 ± 5%
- activity at 30 µM (U-46619 10 μM): 92 ± 5%
- activity at 100 µM (U-46619 0.05 μM): 0%
- activity at 100 µM (U-46619 0.1 μM): 5 ± 3%
- activity at 100 µM (U-46619 0.2 μM): 15 ± 3%
- activity at 100 µM (U-46619 0.5 μM): 27 ± 4.5%
- activity at 100 µM (U-46619 1 μM): 41 ± 4%
- activity at 100 µM (U-46619 2 μM): 55 ± 5.7%
- activity at 100 µM (U-46619 5 μM): 68 ± 5.7%
- activity at 100 µM (U-46619 10 μM): 78 ± 3%

Source: patent US5853731A, “Thromboxane A2 Receptor antagonism and antioxidant action of cinnamophilin and its derivatives, their pharmaceutical compositions and uses” (National Science Council, priority 1997, dated 1998)
